Here are results for 29 molecules from patent US9994594B2, “Inhibitors of arginase and their therapeutic applications” (MARS, INCORPORATED, priority 2010, dated 2018).

One assay deals with T1, human arginase I (ARG I) (Homo sapiens, UniProt P05089).
T1 sequence (P05089 1-322): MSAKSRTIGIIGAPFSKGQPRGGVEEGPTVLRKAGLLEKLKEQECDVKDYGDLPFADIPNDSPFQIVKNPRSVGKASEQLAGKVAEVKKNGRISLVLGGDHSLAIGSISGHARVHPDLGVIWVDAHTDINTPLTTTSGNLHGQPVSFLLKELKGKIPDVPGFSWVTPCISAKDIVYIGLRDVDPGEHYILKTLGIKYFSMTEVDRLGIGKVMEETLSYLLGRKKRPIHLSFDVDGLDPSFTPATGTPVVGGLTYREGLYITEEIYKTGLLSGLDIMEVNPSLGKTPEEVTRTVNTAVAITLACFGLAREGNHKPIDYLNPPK
Kind of assay: Inhibition of arginase I, spectrophotometric urea assay at 530 nm. Particulars: read-out: Potency (ARG I). The class given is biochemical. The procedure:
(§1) The assay established the concentration of inhibitor that is required to reduce arginase activity by 50% (IC50).
(§2) Inhibition of arginase I (ARG I) and arginase II (ARG II) by Formula I and Formula II compounds is followed spectrophotometrically at 530 nm. The compound to be tested is dissolved in DMSO at an initial concentration 50-fold greater than its final concentration in the cuvette. 10 μl of the stock solution is diluted in 90 μl of the assay buffer that comprises 0.1M sodium phosphate buffer containing 130 mM NaCl, pH 7.4, to which is added ovalbumin (OVA) at a concentration of 1 mg/ml. Solutions of arginase I and II are prepared in 100 mM sodium phosphate buffer, pH 7.4 containing 1 mg/ml of OVA to give an arginase stock solution at a final concentration of 100 ng/ml.
(§3) To each well of a 96-well microtiter plate is add 40 μl of enzyme, 10 μl of an inventive compound and 10 μl of enzyme substrate (L-arginine+manganese sulfate). For wells that are used as positive controls, only the enzyme and its substrate are added, while wells used as negative controls contain only manganese sulfate.
(§4) After incubating the microtiter plate at 37° C. for 60 minutes, 150 μl of a urea reagent obtained by combining equal proportions (1:1) of reagents A and B is added to each well of the microtiter plate to stop the reaction. The urea reagent is made just before use by combining Reagent A (10 mM o-phthaldialdehyde, and 0.4% polyoxyethylene (23) lauryl ether (w/v) in 1.8 M sulfuric acid) with Reagent B (1.3 mM primaquine diphosphate, 0.4% polyoxyethylene (23) lauryl ether (w/v), 130 mM boric acid in 3.6 M sulfuric acid). After quenching the reaction mixture, the microtiter plate is allowed to stand for an additional 10 minutes at room temperature to allow color development. The inhibition of arginase is computed by measuring the optical density (OD) of the reaction mixture at 530 nm and normalizing the OD value to percent inhibition observed in the control. The normalized OD is then used to generate a dose-response curve by plotting the normalized OD values against log [concentration] and using regression analysis to compute the IC50 values.

A further assay has as its target T2, arginase II (ARG II) (Homo sapiens, UniProt P78540).
T2 sequence (P78540 23-354): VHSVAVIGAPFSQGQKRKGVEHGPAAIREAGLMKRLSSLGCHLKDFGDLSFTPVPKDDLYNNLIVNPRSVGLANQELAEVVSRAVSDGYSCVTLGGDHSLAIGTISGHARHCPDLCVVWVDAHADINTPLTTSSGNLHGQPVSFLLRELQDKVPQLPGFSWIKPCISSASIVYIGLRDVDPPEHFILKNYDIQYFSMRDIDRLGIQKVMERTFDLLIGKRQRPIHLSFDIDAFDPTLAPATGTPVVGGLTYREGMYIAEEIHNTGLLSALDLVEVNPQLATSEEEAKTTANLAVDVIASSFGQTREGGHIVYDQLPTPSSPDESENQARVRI
As to the kind of experiment: Inhibition of arginase II, spectrophotometric urea assay at 530 nm. The class given is biochemical. The procedure: as §1, §2, §3, §4

Where [1] appears, read: Formula II compounds, Table 2-A.
[2] abbreviates: Formula II compounds, Table 2-A, read-out: Potency (ARG).
Where [3] appears, read: Formula I compounds, Table 2, read-out: Potency (ARG II).

Counter-ions that a name gives are not always drawn. Like-named read-outs stand apart in the source and are kept apart here.

For the molecule `NC(CCCCB(O)O)(C(=O)O)[C@@H]1CCN(Cc2ccc(F)cc2)C1` (mixture of isomers) [37-A, 2-amino-6-borono-2-((R)-1-(4-fluorobenzyl)pyrrolidin-3-yl)hexanoic acid], the IC50 was in the range of 251 to 1000 nM on human arginase I (ARG I) (setting [1]) and 1000 to 2000 nM on arginase II (ARG II) (setting [2]).

Regarding `NC(CCCCB(O)O)(C(=O)O)[C@@H]1CCN(Cc2ccc(C(F)(F)F)cc2)C1` (mixture of isomers) [38-A, 2-amino-6-borono-2-((R)-1-(4-(trifluoromethyl)benzyl)pyrrolidin-3-yl)hexanoic acid dihydrochloride], the IC50 on human arginase I (ARG I) (setting [1]) and on arginase II (ARG II) (setting [2]) was 251 to 1000 nM in each case.

In the case of `CCN(CCC(N)(CCCCB(O)O)C(=O)O)Cc1ccccc1` (racemic) [compound 19, (R/S)-2-Amino-2-[2-(benzyl-ethyl-amino)-ethyl]-6-borono-hexanoic acid dihydrochloride], the IC50 at human arginase I (ARG I) (Formula I compounds, Table 2) fell in the range of 2000 to 5000 nM; on arginase II (ARG II) (setting [3]), 1000 to 2000 nM.

Regarding `NC(CCCCB(O)O)(CNC(c1ccccc1)C(O)c1ccccc1)C(=O)O` (stereo in doubt) [compound 89, 2-amino-6-borono-2-(((1R,2S)-2-hydroxy-1,2-diphenylethylamino)methyl)hexanoic acid dihydrochloride], the IC50 at human arginase I (ARG I) (Formula I compounds, Table 2) is above 5000 nM; on arginase II (ARG II) (setting [3]), above 5000 nM.

`N[C@](CCCCB(O)O)(C[C@H]1CCCN1)C(=O)O` (stereo in doubt) [compound 115, (R)-2-amino-6-borono-2-((R)-pyrrolidin-2-ylmethyl)hexanoic acid]: the IC50 on human arginase I (ARG I) (Formula I compounds, Table 2) is 0.1 to 250 nM; on arginase II (ARG II) (setting [3]), 0.1 to 250 nM.

As to `NC(CCCCB(O)O)(C(=O)O)C1CCN(c2ccc(C(F)(F)F)cn2)CC1` (stereo not drawn) [1-A, 2-amino-6-borono-2-(5′Trifluoromethyl-3,4,5,6-tetrahydro-2H-[1,2′]bipyridinyl-4-yl)-hexanoic acid hydrochloride], the IC50 on human arginase I (ARG I) (setting [1]) lay within 251 to 1000 nM; at arginase II (ARG II) (setting [2]), 1000 to 2000 nM.

In the case of `NC(CCCCB(O)O)(C(=O)O)C1CCN(c2nccc(C(F)(F)F)n2)CC1` (stereo not drawn) [2-A, 2-amino-6-borono-2-[(4-Trifluoromethyl-pyrimidin-2-yl)-piperidin-4-yl)-hexanoic acid hydrochloride], the IC50 at human arginase I (ARG I) (setting [1]) fell in the range of 1000 to 2000 nM; on arginase II (ARG II) (setting [2]) it was 2000 to 5000 nM.

Take `NC(CCCCB(O)O)(C(=O)O)C1CCN(c2cc(C(F)(F)F)nc3ccccc23)CC1` (stereo not drawn) [3-A, 2-amino-6-borono-2-[(2-Trifluoromethyl-quinolin-4-yl)-piperidin-4-yl)-hexanoic acid hydrochloride]: the IC50 at human arginase I (ARG I) (setting [1]) and at arginase II (ARG II) (setting [2]) was 1000 to 2000 nM each time.

As to `NC(CCCCB(O)O)(C(=O)O)C1CCN(c2nc3ccc(Cl)cc3o2)CC1` (stereo not drawn) [4-A, 2-amino-6-borono-2-[(6-chlorobenzoxazol-2-yl)-piperidin-4-yl)-hexanoic acid hydrochloride], the IC50 at human arginase I (ARG I) (setting [1]) fell in the range of 251 to 1000 nM; on arginase II (ARG II) (setting [2]) it was 1000 to 2000 nM.

For `Cc1cc2c(F)ccc(C)c2nc1N1CCC(C(N)(CCCCB(O)O)C(=O)O)CC1` (stereo not drawn) [5-A, 2-amino-6-borono-2-(1-(5-fluoro-3,8-dimethylquinolin-2-yl)piperidin-4-yl)hexanoic acid dihydrochloride], the IC50 on human arginase I (ARG I) (setting [1]) was in the range of 1000 to 2000 nM; on arginase II (ARG II) (setting [2]), 251 to 1000 nM.

Turning to `NC(CCCCB(O)O)(C(=O)O)C1CCN(c2cc(C(F)(F)F)c3ccccc3n2)CC1` (stereo not drawn) [6-A, 2-amino-6-borono-2-(1-(4-(trifluoromethyl)quinolin-2-yl)piperidin-4-yl)hexanoic acid], the IC50 on human arginase I (ARG I) (setting [1]) lay within 251 to 1000 nM; on arginase II (ARG II) (setting [2]), 1000 to 2000 nM.

In the case of `Cc1cc(C(F)(F)F)cc(N2CCC(C(N)(CCCCB(O)O)C(=O)O)CC2)n1` (stereo not drawn) [7-A, 2-amino-6-borono-2-(1-(6-methyl-4-(trifluoromethyl)pyridin-2-yl)piperidin-4-yl)hexanoic acid], the IC50 was in the range of 1000 to 2000 nM at human arginase I (ARG I) (setting [1]) and 2000 to 5000 nM on arginase II (ARG II) (setting [2]).

Turning to `NC(CCCCB(O)O)(C(=O)O)C1CCN(c2ncc(Cl)cc2Cl)CC1` (stereo not drawn) [8-A, 2-amino-6-borono-2-(1-(3,5-dichloropyridin-2-yl)piperidin-4-yl)hexanoic acid], the IC50 at human arginase I (ARG I) (setting [1]) and on arginase II (ARG II) (setting [2]) was 2000 to 5000 nM in each case.

For the molecule `NC(CCCCB(O)O)(C(=O)O)C1CCN(c2cc(C(F)(F)F)ccn2)CC1` (stereo not drawn) [9-A], the IC50 at human arginase I (ARG I) (setting [1]) is 1000 to 2000 nM; on arginase II (ARG II) (setting [2]), 2000 to 5000 nM.

Regarding `NC(CCCCB(O)O)(C(=O)O)C1CCN(c2ncc(C(F)(F)F)cc2Cl)CC1` (stereo not drawn) [10-A, 2-amino-6-borono-2-(1-(3-chloro-5-(trifluoromethyl)pyridin-2-yl)piperidin-4-yl)hexanoic acid dihydrochloride], the IC50 at human arginase I (ARG I) (setting [1]) and at arginase II (ARG II) (setting [2]) was 2000 to 5000 nM in each case.

Regarding `NC(CCCCB(O)O)(C(=O)O)C1CCN(c2nc3ccc(Cl)cc3s2)CC1` (stereo not drawn) [11-A, 2-amino-6-borono-2-[(6-chlorobenzothiazol-2-yl)-piperidin-4-yl)-hexanoic acid dihydrochloride], the IC50 on human arginase I (ARG I) (setting [1]) and on arginase II (ARG II) (setting [2]) was 251 to 1000 nM each time.

Turning to `NC(CCCCB(O)O)(CCN1CCOCC1)C(=O)O` (stereo not drawn) [compound 24, 2-amino-6-borono-2-(2-morpholinoethyl)hexanoic acid], on arginase II (ARG II) (setting [3]), the IC50 was in the range of 2000 to 5000 nM.

Consider `NC(CCCCB(O)O)(CCN1CCNCC1)C(=O)O` (stereo not drawn) [compound 32, 2-amino-6-borono-2-(2-(piperazin-1-yl)ethyl)hexanoic acid trihydrochloride], for which, at arginase II (ARG II) (setting [3]), the IC50 lay in the range of 2000 to 5000 nM.

Regarding `CN1CCN(CCC(N)(CCCCB(O)O)C(=O)O)CC1` (stereo not drawn) [compound 35, 2-amino-6-borono-2-(2-(4-methylpiperazin-1-yl)ethyl)hexanoic acid trihydrochloride], the IC50 on arginase II (ARG II) (setting [3]) was 2000 to 5000 nM.

On to `NC(CCCCB(O)O)(CN1CCOCC1)C(=O)O` (stereo not drawn) [compound 81, 2-amino-6-borono-2-(morpholinomethyl)hexanoic acid dihydrochloride], for which the IC50 at arginase II (ARG II) (setting [3]) is above 5000 nM.

Take `NC(CO)(CCCCB(O)O)C(=O)O` (stereo not drawn) [compound 82, 2-amino-6-borono-2-(hydroxymethyl)hexanoic acid hydrochloride]: the IC50 at arginase II (ARG II) (setting [3]) was 2000 to 5000 nM.

On to `NC(CCCCB(O)O)(Cc1cccc(F)c1)C(=O)O` (stereo not drawn) [compound 98, 2-amino-6-borono-2-(3-fluorobenzyl)hexanoic acid hydrochloride], for which, on arginase II (ARG II) (setting [3]), the IC50 was above 5000 nM.

Regarding `NC(CCCCB(O)O)(Cc1ccccc1)C(=O)O` (stereo not drawn) [compound 99, 2-amino-2-benzyl-6-boronohexanoic acid hydrochloride], the IC50 at arginase II (ARG II) (setting [3]) was above 5000 nM.

Turning to `COCCCC(N)(CCCCB(O)O)C(=O)O` (stereo not drawn) [compound 100, 2-amino-6-borono-2-(3-methoxypropyl)hexanoic acid hydrochloride], the IC50 at arginase II (ARG II) (setting [3]) was above 5000 nM.

For the molecule `NC(CCCO)(CCCCB(O)O)C(=O)O` (stereo not drawn) [compound 101, 2-amino-6-borono-2-(3-hydroxypropyl)hexanoic acid hydrochloride], the IC50 on human arginase I (ARG I) (Formula I compounds, Table 2) fell in the range of 2000 to 5000 nM.

As to `O=C(O)C1(CCCCB(O)O)CCCN1` (stereo not drawn) [compound 103, 2-(4-boronobutyl)pyrrolidine-2-carboxylic acid hydrochloride], the IC50 at arginase II (ARG II) (setting [3]) is above 5000 nM.

As to `CC(C)CC(N)(CCCCB(O)O)C(=O)O` (stereo not drawn) [compound 104, 2-amino-6-borono-2-isobutylhexanoic acid hydrochloride], on arginase II (ARG II) (setting [3]), the IC50 is above 5000 nM.

`CC(C)C(N)(CCCCB(O)O)C(=O)O` (stereo not drawn) [compound 105, 2-amino-6-borono-2-isopropylhexanoic acid hydrochloride]: at arginase II (ARG II) (setting [3]), the IC50 is above 5000 nM.

`NC(CCCCB(O)O)(CCC1Cc2ccccc2CN1)C(=O)O` (stereo not drawn) [compound 131, 2-amino-6-borono-2-(2-(1,2,3,4-tetrahydroisoquinolin-3-yl)ethyl)hexanoic acid dihydrochloride]: at human arginase I (ARG I) (Formula I compounds, Table 2), the IC50 fell in the range of 251 to 1000 nM.
